# Measured values: patent publication US20190046627A1, “USE OF A GNP-LLO91-99 COMPLEX FOR THE TREATMENT AND PREVENTION OF CANCER” (FUNDACIÓN INSTITUTO DE INVESTIGACIÓN MARQUES DE VALDECILLA, priority 2016, published 2019)
# No end group written: not given here.
# Experiments:
# ovary tumor cells = test: Subcutaneous tumor transplant model (Example 9); assay type: in vivo, mice; conditions: subcutaneous transplants, C57BL/6, 50 μg/ml in-situ for 7 days
# glioblastoma (RG-1) = test: In vitro activation cell markers, flow cytometry; assay type: cell-based; conditions: 10 μg/ml pre-treatment
# Protocol: (§1) 3.—Study of in vitro activation cell markers. The markers of the cell surface of the different tumor cells (1×10^6 cells) that are pre-treated or that are not pre-treated with 10 μg/ml of the GNP-LLO91-99 gold nanoparticles similar to the apoptosis process are analyzed by means of flow cytometry using the following antibodies (Miltenyi Biotech): anti-CD86-V450, anti-CD80-FITC, anti-MHC-II-APC, CD11c-PE, anti-NCAM-PE, anti-PD-1-V450.
# [1] = system: Hepa1-6, murine hepatocarcinoma; test: In vitro apoptosis-necrosis, flow cytometry annexin V-APC / 7-ADD; assay type: cell-based; conditions: 10 μg/ml, 16 hours
# Protocol: (§2) 1.—Tumor cells. The cells used are: Hepa1-6, murine hepatocarcinoma, TC-1, murine lung carcinoma; B16F10, murine melanoma; A-375, human melanoma; hamster melanoma (ATCC).
# (§3) 2.—In vitro apoptosis-necrosis. The different tumor cells (1×10^6 cells) are treated with 10 μg/ml of the GNP-LLO91-99 gold nanoparticles in culture plates, 16 hours prior to the apoptosis-necrosis analysis, including cells of each type of tumor without treatment with the gold nanoparticles (control). Following washing, the cells are analyzed by means of flow cytometry using two specific products, annexin V conjugated with the APC fluorochrome and the fluorescent marker for binding to DNA, 7-ADD (7-amino-actinomycin D). Apoptosis and necrosis in the tumor cells are analyzed by means of the differential marking with annexin V-APC and 7-ADD expressed as percentages. While the necrosis is indicated as the percentage of cells doubly marked with annexin V-APC and 7-ADD, the apoptosis is expressed as the percentage of cells marked only with annexin V.
# B16F10, murine melanoma [2] = test: as above; assay type: cell-based; conditions: 10 μg/ml, 16 hours
# Protocol: as §2, §3
# A-375, human melanoma [3] = test: as above; assay type: cell-based; conditions: 10 μg/ml, 16 hours, A375
# Protocol: as §2, §3
# [4] = system: TC-1, murine lung carcinoma; test: as above; assay type: cell-based; conditions: 10 μg/ml, 16 hours
# Protocol: as §2, §3
# murine melanoma B16OVA = test: Prevention of tumor growth, intraperitoneal melanoma after preventive treatment (Example 5); assay type: in vivo, mice
# Protocol: For the comparative study of the prevention of tumor growth in adults between the therapy of the invention and known anti-tumor therapies, the following therapies (50 μg/ml) were inoculated in female adults of the C57BL/6 strain in an intraperitoneal manner: LLO91-99 (only peptide from listeriolysin O of Listeria monocytogenes, LLO91-99), GNP (empty gluconanoparticles), GNP-LLO91-99 (gluconanoparticles synthesized with the peptide from listeriolysin O of Listeria monocytogenes, LLO91-99), GNP-GAPDH1-22 (nanoparticles synthesized with the peptide from glyceraldehyde-3-phosphate dehydrogenase of Listeria monocytogenes, GAPDH1-22) or saline (NT).
# Following 7 days preventative post-treatment, the tumors were established following inoculation with 5×10^6 cells of murine melanoma B16OVA in an intraperitoneal manner. Following 7 days post-established of the tumor, the mice were sacrificed and the recovered tumors were measured by means of a gauge and the tumors were analyzed by means of immunohistochemical staining. The results of the reduction of the tumor growth and their intraperitoneal position are shown in FIG. 4A and FIG. 4B and the results of the analysis of the immunohistochemical staining in FIG. 4C.
# ovary tumor cells (CHO) = test: In vitro activation cell markers, flow cytometry; assay type: cell-based, hamster; conditions: 10 μg/ml pre-treatment
# Protocol: as §2, §1
# B16F10, murine melanoma [5] = test: In vitro activation cell markers, flow cytometry; assay type: cell-based; conditions: 10 μg/ml pre-treatment
# Protocol: as §2, §1
# A-375, human melanoma [6] = test: In vitro activation cell markers, flow cytometry; assay type: cell-based; conditions: 10 μg/ml pre-treatment, A375
# Protocol: as §2, §1
# murine melanoma B16F10 [7] = test: Metastasis in the lung from murine melanoma (Example 3); assay type: in vivo, mice; conditions: s.c. B16F10, 50 μg/ml inoculated in the tumors for 5 days
# Protocol: For the study of metastasis in the lung of murine melanoma following the use of different therapies and their comparison with that of the invention, 1×10^6 cells of murine melanoma B16F10 were inoculated in a subcutaneous manner just like in FIG. 1. Following 7 days post-inoculation, 50 μg/ml of the following therapeutic particles were inoculated in the tumors for 5 days: GNP (empty gluconanoparticles), GNP-LLO91-99 (gluconanoparticles synthesized with the peptide from listeriolysin O of Listeria monocytogenes, LLO91-99), GNP-GAPDH1-22 (nanoparticles synthesized with the peptide from glyceraldehyde-3-phosphate dehydrogenase of Listeria monocytogenes, GAPDH1-22) or no particle (NT). As a control, the vector previously used in therapy was also included consisting of dendritic cells loaded with the LLO91-99 (1×10^6 DC-LLO91-99) peptide.
# Following this treatment, the mice were sacrificed and the lungs removed, which were washed with PBS. Subsequently, the tumor nodules were counted under a magnifying glass, which were observed as black spots on the lungs.
# murine melanoma B16F10 [8] = test: Reduction of the size of the tumor in newborns (Example 6); assay type: in vivo; conditions: 9-day old Balb/c mice, s.c. B16F10 established 5 days, 50 μg/ml in the tumors for 5 days
# Protocol: For the study of the reduction of the size of the tumor in newborns making use of different therapies and their comparison with that of the invention, 5×10^5 cells of murine melanoma B16F10 were inoculated in a subcutaneous manner in the interscapular area of 9-day old female mice of the Balb/c strain.
# Following 5 days post-inoculation, 50 μg/ml of the following therapies were inoculated in the tumors for 5 days: LLO91-99 (only peptide from listeriolysin O of Listeria monocytogenes, LLO91-99), GNP (empty gluconanoparticles), GNP-LLO91-99 (gluconanoparticles synthesized with the peptide from listeriolysin O of Listeria monocytogenes, LLO91-99), GNP-GAPDH1-22 (nanoparticles synthesized with the peptide from glyceraldehyde-3-phosphate dehydrogenase of Listeria monocytogenes, GAPDH1-22). As a control, a vector previously used in therapy was also included, dendritic cells loaded with the LLO91-99 (1×10^5 DC-LLO91-99) peptide.
# Following this treatment, the mice were sacrificed and the tumors recovered, measuring their size with a gauge.
# lung cancer cells (TC-1) = test: In vitro activation cell markers, flow cytometry; assay type: cell-based, murine; conditions: 10 μg/ml pre-treatment
# Protocol: as §2, §1
# [9] = system: hepatocarcinoma (Hepa 1-6); test: In vitro activation cell markers, flow cytometry; assay type: cell-based, murine; conditions: 10 μg/ml pre-treatment
# Protocol: as §2, §1
substance,measurement,setting,value
"GNP-LLO91-99: gluconanoparticles synthesized with the peptide from listeriolysin O of Listeria monocytogenes, LLO91-99 (GYKDGNEYI; also: gold glyconanoparticle conjugate; UniProt P13128 91-99, looked up, fragment)",in vivo inhibitory effect of the tumor,ovary tumor cells,does not cause any effect
same,expression of MHC-I,glioblastoma (RG-1),inhibition
same,expression of MHC-II,glioblastoma (RG-1),no variation
same,expression of NCAM-1,glioblastoma (RG-1),no variation
same,expression of immune cell activation markers,glioblastoma (RG-1),no induction of expression of activation markers
same,effect of inducing apoptosis,[1],much more pronounced
same,induction of tumor apoptosis and necrosis,[1],induce both tumor apoptosis and necrosis
same,effect of inducing apoptosis,"B16F10, murine melanoma [2]",much more pronounced
same,effect of inducing apoptosis,"A-375, human melanoma [3]",much more pronounced
same,effect of inducing apoptosis,[4],much more pronounced
same,induction of tumor apoptosis and necrosis,[4],induce both tumor apoptosis and necrosis
same,prevention of tumor growth,"murine melanoma B16OVA; 50 μg/ml intraperitoneal 7 days before i.p. B16OVA, adult C57BL/6, tumors measured 7 days after establishment",90%
same,necrotizing foci in the melanomas,murine melanoma B16OVA; immunohistochemical staining of recovered peritoneal tumors,60%
same,position of the tumor / spreading to other organs,murine melanoma B16OVA; intraperitoneal B16OVA after preventive treatment,positioned intraperitoneally preventing its spreading to other organs
same,expression of immune cell activation markers,ovary tumor cells (CHO),did not undergo a variation in any of the markers analyzed
same,expression of immune cell activation markers,"B16F10, murine melanoma [5]","boosted the expression of various activation markers such as MHC-I, MHC-II, CD80 and PD-1"
same,expression of immune cell activation markers,"A-375, human melanoma [6]","boosted the expression of various activation markers such as MHC-I, MHC-II, CD80 and PD-1"
same,formation of metastasis in the lungs (in words),murine melanoma B16F10 [7],prevents the formation of metastasis in the lungs
same,prevention of the formation of metastasis in the lungs,murine melanoma B16F10 [7]; lung tumor nodules counted,more than 95%
same,tumor regression in newborns,murine melanoma B16F10 [8],95%
same,expression of immune cell activation markers,lung cancer cells (TC-1),only boosted the expression of MHC-I
same,expression of immune cell activation markers,[9]; Hepa 1-6,"boosted the expression of various activation markers such as MHC-I, MHC-II, CD80 and PD-1"
same,expression of PD-1,[9]; hepatocarcinomas,high expression of PD-1
